Measurements published in US8946413B2 (Pfizer Inc., priority 2008, dated 2015).
Like-named read-outs stand apart in the source and are kept apart here.

Assays:
CCR2 = molecular target: T1, CCR2 (Homo sapiens, UniProt P41597); assay: hCCR2 (125-I hMCP-1) small molecule binding assay on human PBMCs; conditions: for IC50: 125I-MCP-1, human PBMCs
T1 construct: (leukophoresis pack); host or cells: human peripheral blood mononuclear cells (PBMCs) from a normal human leukophoresis pack
Procedure, shortened: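 Ficoll-isolated human PBMCs pre-incubated 30 min or 1 h with compound at 0.333 μM final (0.67% DMSO), then incubated 30 min at room temperature with 150 pM 125I-hMCP-1 in RPMI/0.1% BSA/20 mM HEPES. Filter-bound radioactivity counted by gamma counter. 100% inhibition defined with 1 μM hMCP-1; IC50 plates run n=2.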

[1] = tested on: streptozotocin (STZ)-induced diabetic rat model; assay: Diabetic nephropathy rat model (STZ-induced), 24-hour urinary albumin excretion; type: in vivo; conditions: STZ diabetic male Wistar rats
Text: A rat model of diabetic nephropathy was used to determine the renal protective effect of pharmacological inhibition of CCR2. The streptozotocin (STZ)-induced diabetic rat model has been extensively used for studying the progression of diabetic renal disease. STZ injection causes immediate destruction of pancreatic β-cells, consequently hyperglycemia and progression of nephropathy similar to that seen in human diabetes mellitus. Diabetes was induced in male Wistar rats by single administration of STZ (45 mp/kg, iv). Three days after the induction of diabetes, fasting blood glucose levels were assessed. Animals with fasting blood glucose levels higher than 200 mg/dL were included in the study. All the treatments were then initiated. 1,5-anhydro-2,3-dideoxy-3-{[(1R,3S)-3-isopropyl-3-({(1S,4S)-5-[6-(trifluoromethyl)pyrimidin-4-yl]-2,5-diazabicyclo[2.2.1]hept-2-yl}carbonyl)cyclopentyl]amino}-4-O-methyl-D-erythro-pentitol was administered at doses of 0.03, 0.3, 1, and 10 mg/kg (mpk) (in the chow) for 11 weeks. 24-hour urine collections were obtained at 1, 4, 8, and 11 weeks after the treatment for assessing 24-hour urinary albumin excretion (UAE).

[2] = 30 min preincubation, read-out: IC50 (nM) 30 min preinc
[3] = 1 hr preincubation, read-out: IC50 (nM) 1 hr preinc

T1 sequence (P41597 whole entry): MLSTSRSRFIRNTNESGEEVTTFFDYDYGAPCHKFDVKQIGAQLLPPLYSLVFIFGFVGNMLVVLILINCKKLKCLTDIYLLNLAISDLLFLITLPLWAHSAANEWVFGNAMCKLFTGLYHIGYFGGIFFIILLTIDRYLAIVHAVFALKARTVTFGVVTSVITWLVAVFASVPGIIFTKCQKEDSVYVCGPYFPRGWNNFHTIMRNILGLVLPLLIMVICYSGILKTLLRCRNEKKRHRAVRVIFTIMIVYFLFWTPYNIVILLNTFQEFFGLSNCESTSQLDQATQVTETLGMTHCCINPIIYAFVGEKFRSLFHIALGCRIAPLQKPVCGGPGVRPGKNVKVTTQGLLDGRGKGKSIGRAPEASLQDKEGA

| Compound | IC50 (CCR2; [2]) [nM] | other results |
| --- | --- | --- |
| CO[C@@H]1COCC[C@@H]1N[C@@H]1CC[C@@](C(=O)N2C[C@@H]3C[C@H]2CN3c2cc(C(F)(F)F)ncn2)(C(C)C)C1 [Example 13, 1,5-anhydro-2,3-dideoxy-3-{[(1R,3S)-3-isopropyl-3-({(1S,4S)-5-[6-(trifluoromethyl)pyrimidin-4-yl]-2,5-diazabicyclo[2.2.1]hept-2-yl}carbonyl)cyclopentyl]amino}-4-O-methyl-D-erythro-pentitol] | 25.4 | IC50 (CCR2; [3]): 3.68 nM; 24-hour urinary albumin excretion (UAE) ([1]; 0.03 mpk in the chow, week 11): 2.17±1.31 mg/24 h; 24-hour urinary albumin excretion (UAE) ([1]; 0.3 mpk in the chow, week 8): 1.73±0.69 mg/24 h; 24-hour urinary albumin excretion (UAE) ([1]; 0.3 mpk in the chow, week 11): 1.96±0.85 mg/24 h; 24-hour urinary albumin excretion (UAE) ([1]; 1 mpk in the chow, week 8): 1.09±0.20 mg/24 h; 24-hour urinary albumin excretion (UAE) ([1]; 1 mpk in the chow, week 11): 1.66±0.65 mg/24 h; 24-hour urinary albumin excretion (UAE) ([1]; 10 mpk in the chow, week 8): 0.71±0.22 mg/24 h; 24-hour urinary albumin excretion (UAE) ([1]; 10 mpk in the chow, week 11): 1.02±0.32 mg/24 h |
| CO[C@@H]1COCC[C@@H]1N[C@@H]1CC[C@@](C(=O)N2C[C@@H]3C[C@H]2CN3c2cccc(C(F)(F)F)n2)(C(C)(C)O)C1 [Example 57, 1,5-anhydro-2,3-dideoxy-3-{[3-(1-hydroxy-1-methylethyl)-3-({5-[6-(trifluoromethyl)pyridin-2-yl]-2,5-diazabicyclo[2.2.1]hept-2-yl}carbonyl)cyclopentyl]amino}-4-O-methylpentitol] | 4.34 |  |
| CO[C@@H]1COCC[C@@H]1N[C@@H]1CC[C@@](C(=O)N2C[C@@H]3C[C@H]2CN3c2ccnc(C(F)(F)F)c2)(C(C)(C)O)C1 [Example 58, 1,5-anhydro-2,3-dideoxy-3-{[3-(1-hydroxy-1-methylethyl)-3-({5-[2-(trifluoromethyl)pyridin-4-yl]-2,5-diazabicyclo[2.2.1]hept-2-yl}carbonyl)cyclopentyl]amino}-4-O-methylpentitol] | 38.5 |  |
| CO[C@@H]1COCC[C@@H]1N[C@@H]1CC[C@@](C(=O)N2C[C@@H]3C[C@H]2CN3c2cncc(C(F)(F)F)n2)(C(C)(C)O)C1 [Example 59, 1,5-anhydro-2,3-dideoxy-3-{[3-(1-hydroxy-1-methylethyl)-3-({5-[6-(trifluoromethyl)pyrazin-2-yl]-2,5-diazabicyclo[2.2.1]hept-2-yl}carbonyl)cyclopentyl]amino}-4-O-methylpentitol] | 17.7 |  |
| CO[C@@H]1COCC[C@@H]1N[C@@H]1CC[C@@](C(=O)N2C[C@@H]3C[C@H]2CN3c2cc(C(F)(F)F)ccn2)(C2CCOC2)C1 (stereo partly drawn) [Example 60, ((1S,3R)-3-((3S,4S)-3-methoxy-tetrahydro-2H-pyran-4-ylamino)-1-(tetrahydrofuran-3-yl)cyclopentyl)((1S,4S)-5-(4-(trifluoromethyl)pyridin-2-yl)-2,5-diaza-bicyclo[2.2.1]heptan-2-yl)methanone] | 2.4 |  |
| CO[C@@H]1COCC[C@@H]1N[C@@H]1CC[C@@](C(=O)N2C[C@@H]3C[C@H]2CN3c2cc(C(F)(F)F)ccn2)(C2CCOC2)C1 (stereo partly drawn) [Example 61, ((1S,3R)-3-((3S,4S)-3-methoxy-tetrahydro-2H-pyran-4-ylamino)-1-(tetrahydrofuran-3-yl)cyclopentyl)((1S,4S)-5-(4-(trifluoromethyl)pyridin-2-yl)-2,5-diaza-bicyclo[2.2.1]heptan-2-yl)methanone] | 5.9 |  |
| CO[C@@H]1COCC[C@@H]1N[C@@H]1CC[C@@](C(=O)N2C[C@@H]3C[C@H]2CN3c2cc(C(F)(F)F)ccn2)(C(O)C(F)(F)F)C1 (stereo partly drawn) [Example 62, ((1S,3R)-3-((3S,4S)-3-methoxy-tetrahydro-2H-pyran-4-ylamino)-1-(2,2,2-trifluoro-1-hydroxyethyl)cyclopentyl)((1S,4S)-5-(4-(trifluoromethyl)pyridin-2-yl)-2,5-diaza-bicyclo[2.2.1]heptan-2-yl)methanone] | 1.3 |  |
| CO[C@@H]1COCC[C@@H]1N[C@@H]1CC[C@@](C(=O)N2C[C@@H]3C[C@H]2CN3c2cc(C(F)(F)F)ccn2)(C(O)C(F)(F)F)C1 (stereo partly drawn) [Example 63, ((1S,3R)-3-((3S,4S)-3-methoxy-tetrahydro-2H-pyran-4-ylamino)-1-(2,2,2-trifluoro-1-hydroxyethyl)cyclopentyl)((1S,4S)-5-(4-(trifluoromethyl)pyridin-2-yl)-2,5-diaza-bicyclo[2.2.1]heptan-2-yl)methanone] |  | IC50 (CCR2; [3]): 1.1 nM |
| CO[C@@H]1COCC[C@@H]1N[C@@H]1CC[C@H](C(=O)N2C[C@@H]3C[C@H]2CN3c2cc(C(F)(F)F)ccn2)C1 [Example 65, ((1S,3R)-3-((3S,4S)-3-methoxy-tetrahydro-2H-pyran-4-ylamino)cyclopentyl)((1S,4S)-5-(4-(trifluoromethyl)pyridin-2-yl)-2,5-diaza-bicyclo[2.2.1]heptan-2-yl)methanone] |  | inhibition at 0.3 µM (CCR2; 300 nM, 1 hr preincubation, human PBMCs, read-out: % @300 nM (printed in column IC50 1 hr preinc)): 1.5% |

More lines, main results first:

| IC50 (CCR2; [2]) [nM] | Compound | other results |
| --- | --- | --- |
| 1.7 | CO[C@@H]1COCC[C@@H]1N[C@@H]1CC[C@@](C(=O)N2C[C@@H]3C[C@H]2CN3c2cc(F)cc(C(F)(F)F)c2)(C2CCOC2)C1 (some centres unmarked) [Example 66] |  |
| 3.4 | CO[C@@H]1COCC[C@@H]1N[C@@H]1CC[C@@](C(=O)N2C[C@@H]3[C@H](F)[C@H]2CN3c2cc(C(F)(F)F)ccn2)(C(C)C)C1 [Example 67, ((1R,4R,7S)-7-(fluoro)-5-(4-(trifluoromethyl)pyridin-2-yl)-2,5-diaza-bicyclo[2.2.1]heptan-2-yl)((1S,3R)-1-isopropyl-3-((3S,4S)-3-methoxy-tetrahydro-2H-pyran-4-ylamino)cyclopentyl)methanone] |  |
| 5.4 | CO[C@@H]1COCC[C@@H]1N[C@@H]1CC[C@@](C(=O)N2C[C@@H]3[C@H](O)[C@H]2CN3c2cc(C(F)(F)F)ccn2)(C(C)C)C1 [Example 68, ((1R,4R,7S)-7-hydroxy-5-(4-(trifluoromethyl)pyridin-2-yl)-2,5-diaza-bicyclo[2.2.1]heptan-2-yl)((1S,3R)-1-isopropyl-3-((3S,4S)-3-methoxy-tetrahydro-2H-pyran-4-ylamino)cyclopentyl)methanone] |  |
| 4.3 | CO[C@@H]1COCC[C@@H]1N[C@@H]1CC[C@@](C(=O)N2C[C@@H]3C(F)[C@H]2CN3c2cc(C(F)(F)F)ccn2)(C(C)C)C1 (stereo partly drawn) [Example 69, ((1R,4R)-7-fluoro-5-(4-(trifluoromethyl)pyridin-2-yl)-2,5-diaza-bicyclo[2.2.1]heptan-2-yl)((1S,3R)-1-isopropyl-3-((3S,4S)-3-methoxy-tetrahydro-2H-pyran-4-ylamino)cyclopentyl)methanone] |  |
| 8.7 | CO[C@@H]1COCC[C@@H]1N[C@@H]1CC[C@@](C(=O)N2C[C@@H]3C(O)[C@H]2CN3C(=O)OC(C)(C)C)(C(C)C)C1 (stereo partly drawn) [Example 70, (1R,4R,7S)-tert-butyl 7-hydroxy-5-((1S)-1-isopropyl-3-(3-methoxy-tetrahydro-2H-pryan-4-ylamino)cyclopentanecarbonyl)-2,5-diaza-bicyclo[2.2.1]heptane-2-carboxylate] |  |
| 3.7 | CO[C@@H]1COCC[C@@H]1N[C@@H]1CC[C@@](C(=O)N2C[C@@H]3C(F)[C@H]2CN3C(=O)OC(C)(C)C)(C(C)C)C1 (stereo partly drawn) [Example 71, tert-butyl 7-fluoro-5-((1S,3R)-1-isopropyl-3-((3S,4S)-3-methoxy-tetrahydro-2H-pyran-4-ylamino)cyclopentanecarbonyl)-2,5-diaza-bicyclo[2.2.1]heptane-2-carboxylate] |  |
